“And” between values parts separate entries of the source, which are not always exact repeats. Equal values may be shown once. Read-outs that look alike come from different tables or passages of the source.
Assays:
[1] = test system: rat brain (cerebral cortex, hypothalamus, striatum) monoamines; assay: HPLC-ED detection of monoamines and metabolites in rat brain tissue after sub-chronic administration; type: in vivo; conditions: for 5-HIAA/5-HT ratio / DOPAC/DA ratio / HVA/DA ratio / MHPG/NA ratio: mean ± SEM
Experimental: The compound 13 was given to intact Wistar rats to verify its impact on the metabolism of biogenic amines in the brain (cerebral amines and their metabolites concentrations as well as activities of metabolizing enzymes). […] Both drugs (3 mg/kg body mass, dissolved in 0.9% NaCl) were given subcutaneously for 6 consecutive days. Control rats were injected with 200 μL of 0.9% NaCl.
Tissues were collected and properly prepared for subsequent biochemical analyzes. The brain was quickly removed from the skull and the selected structures (hypothalamus, striatum, cerebral cortex) were dissected according to the method by Glowinsky and Iversen, immediately frozen in liquid nitrogen and kept at −80 °C until assayed.
The concentration of dopamine (DA), serotonin (5-HT) and noradrenaline (NA) as well as their metabolites, i.e., 3,4-dihydroxyphenylacetic acid (DOPAC), homovanillic acid (HVA), 3-methoxy-4-hydroxyphenylglycol (MHPG) and 5-hydroxyindoleacetic acid (5-HIAA) was determined in striatum (STR), hypothalamus (HPT) and cerebral cortex (CTX) with the RP-HPLC-ED method.
Cerebral samples for HPLC analysis were homogenized using an ultrasonic homogenizer (Fisher BioBlock Scientific, France) for 15 s in 150 μL homogenization solution (0.1 M HClO4 containing 0.4 mM Na2S2O5), and centrifuged at 12,000 rpm for 15 min at 4 °C. At least 100 μL of the supernatant was transferred to chromatographic tubes and kept at –80 °C until analysis. Next, 20 μL of the filtrates was injected into the HPLC system.
The Agilent 1100 chromatographic system with Waters Spherisorb ODS-1 RP C-18 chromatographic column (4.6 × 250 mm) preceded by a Zorbax SB-C18 pre-column (4.6 × 12.5 mm) was used. Column temperature was set at 35 °C and mobile phase flow at 1 mL/min. The glassy carbon working electrode was set at +0.65 V, relative to the Ag/AgCl reference electrode. The mobile phase consisted of a phosphate buffer (3.4 pH) containing: 0.15 M NaH2PO4 x H2O, […] Na2EDTA, 0.5 mM Na2OSA, 0.5 mM LiCl and addition of methanol (10%). The chromatographic data were analyzed using ChemStation, Revision-B.03.02, Agilent software.
The concentrations of monoamines and their metabolites in each sample were calculated from the integrated chromatographic peak area and presented in nmol/gram of wet tissue. Additionally, the ratio of metabolites to their parent amines was calculated.

[2] = test system: astrocyte cell line isolated from human cerebral cortex; assay: MTT cell viability test on human astrocytes; type: cell-based; conditions: Astrocyte, human astrocytes, MTT
Experimental: The studies were performed on a commercially-available astrocyte cell line isolated from human cerebral cortex (ScienCell Research Laboratories, San Diego, CA, USA; Cat no. 1800). The cells (passage 7–8) were seeded into a 96-well plate at an amount of 10,000 cells/well and kept in accordance with the ScienCell Research Laboratories’ protocol, i.e., in astrocyte medium supplemented with 2% fetal bovine serum, 10% astrocyte growth supplement and 1% penicillin/streptomycin solution, in an atmosphere with 5% CO2 at 37 °C. The cells were allowed to grow for 24 h and then treated with increasing concentrations of test compounds (0.01–0.25 mg/mL) for 24 and 72 h. Astrocytes in the medium on each plate (regardless of the factors tested) were used as a positive control.
The viability of the astrocyte cell line was determined calorimetrically using 3-(4,5-dimethylthazol-2-yl)-2,5-diphenyltetrazolium bromide (MTT; Sigma-Aldrich Chemical Co. Ltd., Saint Louis, MO, USA) as described earlier. […] After the incubation time (24 or 72 h) with examined drugs, 50 μL MTT solution (1 mg/mL) was added to each well of the plate for another 4 h. The method is based on the reduction of a yellow tetrazolium salt (MTT) into purple formazan crystals by mitochondrial succinate-tetrazolium reductase system which is metabolically active in viable cells. At the end of the experiment, the cells were treated with 100 μL dimethyl sulphoxide, which enabled the release of the reaction product.
The absorbance was measured at 570 nm using a BioTek EL×800 microplate reader (BioTek, Winooski, Vermont, USA) and results were expressed as a percentage of the absorbance measured in control cells. The obtained values were plotted against different concentrations of each compound to calculate the viability inhibition concentration at 50% (IC50) using GraphPad Prism 6.07 (GraphPad Software, Inc., San Diego, CA, USA). The experiment was repeated in quadruplicate.
For the cytotoxicity assessment in the MTT assays, each test drug was used at 8 concentrations (range: 0.01–0.25 mg/mL).

[3] = cerebral cortex, 3 mg/kg s.c. for 6 days
[4] = not statistically significant, vs control
[5] = striatum, 3 mg/kg s.c. for 6 days
[6] = 24 h incubation, read-out: IC50 24 h
[7] = 72 h incubation, read-out: IC50 72 h

CC1CCCN1CCCOc1ccc(C(C)(C)C)cc1.O=C(O)C(=O)O (stereo not drawn) [Compound 13, 1-(3-(4-(tert-Butyl)phenoxy)propyl)-2-methylpyrrolidine hydrogen oxalate]
5-HIAA/5-HT ratio ([1]; CTX, 3 mg/kg s.c. for 6 days): 1.211 ± 0.202 | DOPAC/DA ratio ([1]; CTX, 3 mg/kg s.c. for 6 days): 0.364 ±0.080 **^,## | HVA/DA ratio ([1]; CTX, 3 mg/kg s.c. for 6 days): 0.254 ± 0.015 *^,## | 5-HIAA/5-HT ratio ([1]; HPT, 3 mg/kg s.c. for 6 days): 0.810 ±0.061 | DOPAC/DA ratio ([1]; HPT, 3 mg/kg s.c. for 6 days): 0.359 ±0.117 | HVA/DA ratio ([1]; HPT, 3 mg/kg s.c. for 6 days): 0.329 ± 0.091 | MHPG/NA ratio ([1]; HPT, 3 mg/kg s.c. for 6 days): 0.205 ±0.030 | 5-HIAA/5-HT ratio ([1]; STR, 3 mg/kg s.c. for 6 days): 2.456 ± 0.908 | DOPAC/DA ratio ([1]; STR, 3 mg/kg s.c. for 6 days): 0.207 ± 0.067 | HVA/DA ratio ([1]; STR, 3 mg/kg s.c. for 6 days): 0.486 ± 0.388 | MHPG/NA ratio ([1]; STR, 3 mg/kg s.c. for 6 days): 0.329 ± 0.057 | 5-HIAA level in CTX [1, 3]: 1.320 ± 0.153 nmol/g wet tissue | 5-HT level in CTX [1, 3]: 1.194 ± 0.139 nmol/g wet tissue | DA content in CTX [1, 3]: 1.777 ± 0.128 nmol/g wet tissue | DOPAC level in CTX [1, 3]: 0.562 ± 0.093 nmol/g wet tissue | MHPG concentration in CTX [1, 3]: 0.897 ± 0.280 nmol/g wet tissue | NA concentration in CTX [1, 3]: 1.255 ± 0.152 nmol/g wet tissue | DA concentration in hypothalamus, in words [1, 4]: slight increase | DOPAC concentration in hypothalamus, in words [1, 4]: decrease | DA content in STR [1, 5]: 9.914 ± 1.718 nmol/g wet tissue | DOPAC level in STR [1, 5]: 1.704 ± 0.187 nmol/g wet tissue | 5-HIAA level in hypothalamus, in words ([1]; vs control): statistically significant decrease | 5-HT and 5-HIAA concentrations in the striatum, in words ([1]; vs control): did not affect | 5-HT content in hypothalamus, in words ([1]; vs control): no changes | NA and MHPG concentration in the other examined brain structures (HPT, STR), in words ([1]; vs control): no differences were found | IC50 [2, 6]: 230 µM and 84 µg/mL | IC50 [2, 7]: 142 µM and 52 µg/mL

Clc1ccc(CCCOCCCN2CCCCC2)cc1 [Pitolisant, 3-(4-chlorophenyl)propyl 3-piperidinopropyl ether, reference compound]
content in brain tissue of the examined biogenic amines and their metabolites compared to control, in words ([1]; 3 mg/kg s.c. for 6 days): did not show any differences | IC50 [2, 6]: 346 µM and 115 µg/mL | IC50 [2, 7]: 241 µM and 80 µg/mL

Reference: publication PMC9607599, “Dual Targeting Ligands—Histamine H3 Receptor Ligands with Monoamine Oxidase B Inhibitory Activity—In Vitro and In Vivo Evaluation” (Pharmaceutics, 2022)
